Values of other authors, collected in patent publication US20090236541A1, “System and Methods for Optical Imaging” (General Electric Company, priority 2008, published 2009).

Experiments:
[1] = system: heart of a living laboratory rat; conditions: living laboratory rat after a thoracotomy
[2] = system: mitochondria and/or the endoplasmic reticulum; conditions: concentration-dependent manner
[3] = small molecule form

Row | solubility in blood [3] | Compound | imaging of blood flow in the heart [1] | partitioning into mitochondria and/or endoplasmic reticulum [2]
1 |  | CN1C(=CC=C2CCCC(C=CC3=[N+](C)c4ccccc4C3(C)C)=C2Cl)C(C)(C)c2ccccc21.[O-][Cl+3]([O-])([O-])[O-] [IR-786] | successfully applied | partitions efficiently into mitochondria and/or the endoplasmic reticulum
2 | somewhat less soluble in blood | CC1(C)C(/C=C/C=C/C=C/C=C2\N(CCCCS(=O)(=O)O)c3ccc4ccccc4c3C2(C)C)=[N+](CCCCS(=O)(=O)[O-])c2ccc3ccccc3c21 [Indocyanine green, indocyanine green] |  | 
